Test results: PMC6162207, “Identification and pharmaceutical evaluation of novel frog skin-derived serine proteinase inhibitor peptide–PE-BBI (Pelophylax esculentus Bowman-Birk inhibitor) for the potential treatment of cancer” (Scientific Reports, 2018)
Positions of bridges follow the written chain, without caps; N, C: chain ends. Residues, ends and D or L forms follow the SMILES beside them.

Assays:
[1] = test system: Candida albicans (NCYC 1467); assay: Antimicrobial MIC assay, C. albicans; format: cell-based; details: 1 to 512 μM, MHB, 18 h, 37 °C, 6 replicates, absorbance 550 nm; data not shown
Description: (§1) Gram-negative bacteria Escherichia coli (NCTC 10418); Gram-positive bacteria Staphylococcus aureus (NCTC 10788) and pathogenic yeast Candida albicans (NCYC 1467) were used in minimum inhibitory concentration (MIC) assays to investigate the board antimicrobial activity ability of synthetic PE-BBI. Microorganisms involved in MIC assays were cultured in MHB for 16–18 h. Then sub-cultured for 2~4 h to allow the microorganism to enter the logarithmic growth phase. Subsequently, proper density of bacterial (1 × 10^6 colony forming units (cfu)/mL) and fungi (1 × 10^5 cfu/mL) were seeded into 96 well plate. Different concentration ranged from 1 to 512 μM of PE-BBI were added into each well (6 replicates per concentration). The absorbance value at 550 nm was detected using a Synergy HT plate reader (Biotech, Minneapolis, MN, USA) after 18 h incubation in 37 °C incubator[50].

[2] = target: T1, trypsin from bovine pancreas (Bos taurus, UniProt P00760); assay: Trypsin inhibitory assay; format: biochemical
T1 construct: purchased Sigma/Aldrich, Poole, Dorset, UK; host or cells: bovine pancreas
T1 sequence (P00760 24-246): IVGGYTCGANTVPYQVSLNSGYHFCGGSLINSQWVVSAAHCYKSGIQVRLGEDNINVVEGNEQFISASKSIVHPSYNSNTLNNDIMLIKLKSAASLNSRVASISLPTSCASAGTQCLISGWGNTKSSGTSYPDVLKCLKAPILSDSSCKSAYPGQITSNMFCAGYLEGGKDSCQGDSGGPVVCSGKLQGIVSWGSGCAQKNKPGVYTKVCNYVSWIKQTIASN

[3] = test system: Escherichia coli (NCTC 10418); assay: Antimicrobial MIC assay, E. coli; format: cell-based; details: 1 to 512 μM, MHB, 18 h, 37 °C, 6 replicates, absorbance 550 nm; data not shown
Description: as §1

[4] = test system: rat-tail artery smooth muscle; design: species or system rat (female Wistar)
Description: Female Wistar rats (250–300 g) were applied in this study and sacrificed followed the principle of institutional animal experimentation ethics and UK animal research guidelines. All of the procedures involved in this study was approved by IACUC of Queen’s University Belfast. Rat-tail artery and bladder were isolated and located in pre-chilled Kreb’s solution equilibrated with 95% O2, 5% CO2[51]. Isolated muscle strips (2–10 mm) were vertically suspended in a 2 mL organ bath containing 37 °C Kreb’s solution. The Kreb’s solution was constant refreshing by constant flowing (2 mL/min) during the assay. Potassium chloride (KCL, 60 mM) was used to test for viability of muscle strips after 20 min equilibration. After the smooth muscle strip were prepared, the synthetic replicates of PE-BBI (10^−11 to 10^−5 M) was used to quantify the myogenic potency on rat-tail artery and bladder smooth muscle. Between each concentration, the smooth muscle strip was washed 5 mins and re-equilibration for another 5 min. Each data point was repeated on at least five independent muscle strips. The tension change was amplified and recorded by a PowerLab System (AD Instruments Pty Ltd.)[51].

[5] = test system: Staphylococcus aureus (NCTC 10788); assay: Antimicrobial MIC assay, S. aureus; format: cell-based; details: 1 to 512 μM, MHB, 18 h, 37 °C, 6 replicates, absorbance 550 nm; data not shown
Description: as §1

CC[C@H](C)[C@@H]1NC(=O)[C@H](CO)NC(=O)[C@H](CCCCN)NC(=O)[C@H]([C@@H](C)O)NC(=O)[C@H](Cc2c[nH]c3ccccc23)NC(=O)[C@@H](NC(=O)CNC(=O)[C@H](CCCCN)NC(=O)[C@H](CC(C)C)NC(=O)[C@H](C)NC(=O)CN)CSSC[C@@H](C(=O)N[C@@H](CCCCN)C(N)=O)NC(=O)[C@@H]2CCCN2C(=O)[C@H](CCCCN)NC(=O)[C@@H]2CCCN2C(=O)[C@@H]2CCCN2C1=O [PE-BBI] (H-GALKGCWTKSIPPKPCK-NH2; disulfide 6-16; N-terminus assumed)
antimicrobial activity (MIC), C. albicans [1]: didn’t show any obviously antibacterial activity even in the highest concentration (512 μM) | Ki [2]: 310 ± 72 nM | mode of trypsin inhibition ([2]; PE-BBI 0.1–100 µM): competitive reversible trypsin inhibitory activity | antimicrobial activity (MIC), E. coli [3]: didn’t show any obviously antibacterial activity even in the highest concentration (512 μM) | EC50 [4]: 8.79 nM | antimicrobial activity (MIC), S. aureus [5]: didn’t show any obviously antibacterial activity even in the highest concentration (512 μM)
